Experimental data reported in PubChem BioAssay AID2060898 (Molecular Pharmacology Branch, DTP, NCI, 2025).

System: 616215-338-R-J1-PDC complex spheroid viability
Experiment: Anticancer human tumor 616215-338-R-J1-PDC patient-derived colon adenocarcinoma cell line growth inhibition [RAS]
Settings: for IC50: curve of first compound; for viability, T/C: stronger effect = lower value
From the text: RAS pathway inhibitors in Combinations in Complex Spheroids
A high-throughput screen of multi-cell type tumor spheroids was designed to identify active combinations of RAS pathway inhibitors and targeted small molecules. Complex spheroids include a stromal component modeled by human endothelial cells (HUVEC) and fibroblasts modeled by human mesenchymal stem cells (MSCs). The concentration ranges selected for each drug and investigational agent were based upon clinically achievable concentrations if the clinical Cmax of the agent was known.
Compounds. The drugs and investigational agents: abemaciclib (NSC768073), cobimetinib (NSC768068), divarasib (GDC6063, NSC841802), docetaxel (NSC628503), GDC-1971 (RLY-1971, NSC841576), gemcitabine (NSC613327), inavolisib (NSC800729), ipatasertib (NSC767898), KB-0742 (NSC834161), MRTX-1133 (NSC836407), osimertinib (NSC779217), RMC-4630 (NSC839698), RMC-6236 (NSC851965), RMC-6291 (NSC852671), Ro-3306 (NSC812927), sapanisertib (NSC764658), SN-38 (NSC673596), staurosporine (NSC755774), SY5609 (NSC837396), and tovorafenib (DAY101, NSC766906), were obtained from the National Cancer Institute (NCI) Developmental Therapeutics Program Chemical Repository. The FDA-approved anticancer drug set is available from the NCI Developmental Therapeutics Program. […] The stock solutions were prepared in dimethyl sulfoxide (DMSO, Sigma-Aldrich, St. Louis, MO, cat. D2650) at 800-fold the tested concentration and stored at -70 degrees C prior to their use. All drugs and investigational agents were tested over a range starting from a high concentration at or near the clinical Cmax and decreasing in half-log increments. If the clinical Cmax for an agent had not been determined, the highest concentration tested was 10 microM.
Cell Culture. All cells were maintained in an incubator at 37 degrees C and 5% CO2 with 95% humidity. The PDC lines were cultured according to standard operating procedures established by the NCI PDMR. All PDCs were thawed and cultured in Matrigel-coated flasks prepared with a working solution of 1X Ham's F-12 nutrient mix, without supplementation (Invitrogen, Waltham, MA, cat. 11765054), 100 U/mL penicillin-streptomycin (Invitrogen, cat. 15140122), and 2.5% Matrigel (Corning Inc., Corning, NY, cat. 354248) for the first three passages. The 362531-283-R-J2-PDC and 782815-120-R-J1-PDC lines were cultured in 6C/Colon 1B media, which includes advanced DMEM/F-12 (Thermo Fisher Scientific, cat. 12634028), 10 mM HEPES (Thermo Fisher Scientific, cat. 15630080), 1X GlutaMAX supplement (Thermo Fisher Scientific, cat. 35050061), 0.1 mg/mL primocin (InvivoGen, San Diego, CA, cat. ant-pm-2), 10% defined fetal bovine serum, heat inactivated (HyClone Laboratories Inc., Logan, UT, cat. SH30070.03HI), 50% L-WRN conditioned media (ATCC, cat. CRL-3276), 1.25 mM N-Acetyl-L-cysteine (Sigma-Aldrich, cat. A9165), 10 mM nicotinamide (Sigma-Aldrich, cat. N0636), 1X B-27 supplement (Thermo Fisher Scientific, cat. 17504044), 1X N-2 supplement (Thermo Fisher Scientific, cat. 17502048), 50 ng/mL human EGF (Thermo Fisher Scientific, cat. PHG0311), and 10 microM Y-27632 dihydrochloride (Tocris Bioscience, cat. 1254). The K12877-001-R-J1-PDC line was cultured in 6I media, which includes all 6C/Colon 1B media plus 10 ng/mL human FGF-10 (PeproTech, cat. 100-26), 1 ng/mL human FGF-2 (PeproTech, cat. 100-18B), 1 µM prostaglandin E2 (Tocris Bioscience, cat. 2296), […] hydrocortisone (Sigma-Aldrich, cat. H4001), and […] bovine insulin (Sigma-Aldrich, cat. I6634). The K86415-001-R-J1-PDC line was cultured in 6D media, which includes all 6C/Colon 1B media components minus the L-WRN conditioned media. The 485176-168-R4-J1-PDC was cultured in PANC media, which includes all 6C/Colon 1B media plus 100 ng/mL human FGF-10 (PeproTech, cat. 100-26), 500 nM SB-431542 (Selleckchem, cat. S1067), and 10 nM gastrin (Tocris Bioscience, cat. 3006). […]

[1] = second compound 0.0316 µM, first compound 0.0316 µM
[2] = second compound 0.0316 µM, first compound 0.1 µM
[3] = second compound 0.0316 µM, first compound 0.316 µM
[4] = second compound 0.0316 µM, first compound 1 µM
[5] = second compound 0.1 µM, first compound 0.0316 µM
[6] = second compound 0.1 µM, first compound 0.1 µM
[7] = second compound 0.1 µM, first compound 0.316 µM
[8] = second compound 0.1 µM, first compound 1 µM
[9] = second compound 0.316 µM, first compound 0.0316 µM
[10] = second compound 0.316 µM, first compound 0.1 µM
[11] = second compound 0.316 µM, first compound 0.316 µM
[12] = second compound 0.316 µM, first compound 1 µM
[13] = second compound 1 µM, first compound 0.0316 µM
[14] = second compound 1 µM, first compound 0.1 µM
[15] = second compound 1 µM, first compound 0.316 µM
[16] = second compound 1 µM, first compound 1 µM
[17] = second compound 3.16 µM, first compound 0.0316 µM
[18] = second compound 3.16 µM, first compound 0.1 µM
[19] = second compound 3.16 µM, first compound 0.316 µM
[20] = second compound 3.16 µM, first compound 1 µM
[21] = second compound 10 µM, first compound 0.0316 µM
[22] = second compound 10 µM, first compound 0.1 µM
[23] = second compound 10 µM, first compound 0.316 µM
[24] = second compound 10 µM, first compound 1 µM
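Note: spheroids exposed to agents for seven days before viability readout.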
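Throughout, for viability, T/C: 100% = DMSO vehicle control viability.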

With `CCC(CC)c1cc(NC2CCC(N)C2)n2nccc2n1` (centres undefined) + C#Cc1c(F)ccc2cc(O)cc(-c3ncc4c(N5CC6CCC(C5)N6)nc(OCC56CCCN5CC(F)C6)nc4c3F)c12 the IC50 (second compound 0.0316 µM) was 1780 nM, the IC50 (second compound 0.1 µM) was 1780 nM and the IC50 (second compound 0.316 µM) was 1840 nM. It also gave an IC50 (second compound 1 µM) of 1850 nM, an IC50 (second compound 3.16 µM) of 1510 nM and an IC50 (second compound 10 µM) of 1240 nM. The viability, T/C [1] was 102%, the viability, T/C [2] was 98.3% and the viability, T/C [3] was 109%. The viability, T/C [4] was 99.3%, the viability, T/C (second compound 0.0316 µM, first compound 3.16 µM) was 0.29% and the viability, T/C (second compound 0.0316 µM, first compound 10 µM) was 1.51%. The viability, T/C [5] was 104%, the viability, T/C [6] was 105% and the viability, T/C [7] was 96.3%. For the same compound, the viability, T/C [8] was 99.9%, the viability, T/C (second compound 0.1 µM, first compound 3.16 µM) was 0.27% and the viability, T/C (second compound 0.1 µM, first compound 10 µM) was 0.21%. For the same compound, the viability, T/C [9] was 112%, the viability, T/C [10] was 111% and the viability, T/C [11] was 101%. It also gave a viability, T/C [12] of 106%, a viability, T/C (second compound 0.316 µM, first compound 3.16 µM) of 0.21% and a viability, T/C (second compound 0.316 µM, first compound 10 µM) of 1.88%. The viability, T/C [13] was 105%, the viability, T/C [14] was 110% and the viability, T/C [15] was 113%. For the same compound, the viability, T/C [16] was 106%, the viability, T/C (second compound 1 µM, first compound 3.16 µM) was 1.09% and the viability, T/C (second compound 1 µM, first compound 10 µM) was 1.83%. It also gave a viability, T/C [17] of 115%, a viability, T/C [18] of 111% and a viability, T/C [19] of 121%. It also gave a viability, T/C [20] of 77.7%, a viability, T/C (second compound 3.16 µM, first compound 3.16 µM) of 0.19% and a viability, T/C (second compound 3.16 µM, first compound 10 µM) of 1.03%. It also gave a viability, T/C [21] of 83.3%, a viability, T/C [22] of 74.5% and a viability, T/C [23] of 108%. The viability, T/C [24] was 61.3%, the viability, T/C (second compound 10 µM, first compound 3.16 µM) was 3.3% and the viability, T/C (second compound 10 µM, first compound 10 µM) was 0.3%.

In the case of `CCN1CCN(Cc2ccc(Nc3ncc(F)c(-c4cc(F)c5nc(C)n(C(C)C)c5c4)n3)nc2)CC1` + C#Cc1c(F)ccc2cc(O)cc(-c3ncc4c(N5CC6CCC(C5)N6)nc(OCC56CCCN5CC(F)C6)nc4c3F)c12, the IC50 (second compound 0.0316 µM) is reported as greater than 1000 nM, the IC50 (second compound 0.1 µM) is reported as greater than 1000 nM and the IC50 (second compound 0.316 µM) is reported as 874 nM. The IC50 (second compound 1 µM) was 693 nM, the IC50 (second compound 3.16 µM) was 175 nM and the IC50 (second compound 10 µM) was 30.9 nM. The viability, T/C (second compound 0.0316 µM, first compound 0.00316 µM) was 96.4%, the viability, T/C (second compound 0.0316 µM, first compound 0.01 µM) was 117% and the viability, T/C [1] was 120%. The viability, T/C [2] was 108%, the viability, T/C [3] was 131% and the viability, T/C [4] was 53.2%. For the same compound, the viability, T/C (second compound 0.1 µM, first compound 0.00316 µM) was 97.9%, the viability, T/C (second compound 0.1 µM, first compound 0.01 µM) was 110% and the viability, T/C [5] was 113%. The viability, T/C [6] was 124%, the viability, T/C [7] was 129% and the viability, T/C [8] was 50.8%. It also gave a viability, T/C (second compound 0.316 µM, first compound 0.00316 µM) of 105%, a viability, T/C (second compound 0.316 µM, first compound 0.01 µM) of 110% and a viability, T/C [9] of 121%. For the same compound, the viability, T/C [10] was 120%, the viability, T/C [11] was 112% and the viability, T/C [12] was 41.7%. The viability, T/C (second compound 1 µM, first compound 0.00316 µM) was 120%, the viability, T/C (second compound 1 µM, first compound 0.01 µM) was 118% and the viability, T/C [13] was 130%. It also gave a viability, T/C [14] of 88%, a viability, T/C [15] of 74.2% and a viability, T/C [16] of 39.7%. The viability, T/C (second compound 3.16 µM, first compound 0.00316 µM) was 90.8%, the viability, T/C (second compound 3.16 µM, first compound 0.01 µM) was 98.1% and the viability, T/C [17] was 70%. It also gave a viability, T/C [18] of 58.2%, a viability, T/C [19] of 44.6% and a viability, T/C [20] of 30.9%. It also gave a viability, T/C (second compound 10 µM, first compound 0.00316 µM) of 76.1%, a viability, T/C (second compound 10 µM, first compound 0.01 µM) of 58.5% and a viability, T/C [21] of 51.9%. The viability, T/C [22] was 35.5%, the viability, T/C [23] was 39.3% and the viability, T/C [24] was 23.9%.
